Experimental data reported in US7160874B2, “Phenylalanine derivatives” (Ajinomoto Co., Inc., priority 1999, dated 2007).
Values belong to the molecule of their own block, whether it stands above or below them.

What was measured:
[1] = biological target: T1, integrin α4β1 (Homo sapiens, UniProt P05556+P13612); experiment: VCAM antagonist activity (VCAM-1/α4β1 binding assay); type: cell-based; settings: Jurkat cells binding to VCAM-1; read-out: VCAM antagonistic activity (IC50) α4β1
T1 construct: cell strain Jurkat (ATCC TIB-152) of human T cells, known to express integrin α4β1; host or cells: Jurkat (human T cell line)
T1 sequence (P05556 21-798, one chain of several): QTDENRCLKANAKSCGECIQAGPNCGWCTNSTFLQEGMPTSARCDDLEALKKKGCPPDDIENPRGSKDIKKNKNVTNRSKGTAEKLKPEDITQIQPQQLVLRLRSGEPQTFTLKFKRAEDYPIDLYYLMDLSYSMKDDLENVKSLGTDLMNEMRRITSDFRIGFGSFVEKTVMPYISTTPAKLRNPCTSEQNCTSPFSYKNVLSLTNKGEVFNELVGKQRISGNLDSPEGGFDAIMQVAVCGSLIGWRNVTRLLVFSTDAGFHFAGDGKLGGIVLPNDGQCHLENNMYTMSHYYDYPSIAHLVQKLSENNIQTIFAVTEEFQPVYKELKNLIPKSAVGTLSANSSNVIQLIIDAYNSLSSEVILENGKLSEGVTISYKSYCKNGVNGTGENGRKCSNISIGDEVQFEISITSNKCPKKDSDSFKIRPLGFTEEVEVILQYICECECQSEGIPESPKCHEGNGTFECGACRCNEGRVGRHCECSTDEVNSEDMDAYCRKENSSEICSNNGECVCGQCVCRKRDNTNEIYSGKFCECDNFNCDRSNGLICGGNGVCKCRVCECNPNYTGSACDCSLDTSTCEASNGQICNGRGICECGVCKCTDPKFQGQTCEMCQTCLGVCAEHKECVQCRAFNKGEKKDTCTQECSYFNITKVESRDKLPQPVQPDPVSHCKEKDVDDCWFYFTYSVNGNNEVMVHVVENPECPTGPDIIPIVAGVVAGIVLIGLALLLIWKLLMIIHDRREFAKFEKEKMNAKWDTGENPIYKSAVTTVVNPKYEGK
Description: (Test Example) VCAM Antagonist Activity (VCAM-1/α4β1 Binding Assay):
The capacity of a test substance antagonistic to the binding of cell strain Jurkat (ATCC TIB-152) of human T cells, known to express integrin α4β1, to VCAM-1 was determined.
(§1) 100 μl/well of a solution (500 ng/ml) of recombinant human VCAM-1 (R & D systems) solution diluted with buffer A (0.1 M NaHCO3, pH 9.6) was added to a micro titer plate having 96 wells (Nunc Maxisorp). After the incubation at 4° C. overnight, unbound VCAM-1 was removed by washing once with PBS. After completion of the washing, a buffer (buffer B) obtained by diluting Block Ace® (Dainippon Pharmaceutical Co., Ltd.) with PBS to 1/4 concentration was added in an amount of 150 μl/well. After the incubation at room temperature for 1 hour, buffer B was removed and the plate was washed with PBS once.
Jurkat cells were washed with Dulbecco modified Eagle medium (SIGMA, hereinafter referred to as “DMEM”) twice and then incubated in DMEM containing 10 μg/ml of Calcein-AM (Wako Pure Chemical Industries, Ltd.) at 37° C. in dark place for 30 minutes to label with fluorescence. The cells were again suspended in a binding buffer (20 mM HEPES, DMEM containing 0.1% BSA).
(§2) 50 μl of a test substance of various concentrations obtained by the dilution with the binding buffer was added to the plate. Immediately thereafter, 50 μl (final volume: 100 μl/well) of the fluorescent Jurkat cells (4×10^6 cells/ml) were added thereto, and they were incubated at room temperature for 30 minutes. After the shaking on a plate shaker (IKA MTS-4) at 800 rpm for 30 seconds, the solution was immediately removed to remove the unbound cells. The fluorescence quantity of the bound cells remaining in the wells was determined with a fluorescent plate reader (Wallac 1420 ARVO multi-label counter) (filter excitation wave length: 485 nm, emission wave length: 535 nm). The fluorescent strength thus obtained is proportional to the number of Jurkat cells bound to VCAM-1 and remaining on the plate. The binding rate of each test material in various concentrations was determined while the fluorescent strength of the test material-free well was determined to be 100%. The concentration IC50 for the 50% binding inhibition was calculated.
(§3) The activities were classified into group A wherein IC50 was 0.02 μmol/l or below, group B wherein IC50 was higher than 0.02 μmol/l and not above 0.1 μmol/l, group C wherein IC50 was higher than 0.1 μmol/l and not above 2 μmol/l, and group D wherein IC50 was higher than 2 μmol/l and not above 10 μmol/l.

[2] = biological target: T2, integrin α4β7 (Homo sapiens, UniProt P13612+P26010); experiment: VCAM antagonistic activity (VCAM-1/α4β7 binding assay); type: cell-based; settings: RPMI-8866 cells binding to VCAM-1; read-out: VCAM antagonistic activity (IC50) α4β7
T2 construct: lymphoma cell strain RPMI-8866 of human B cells, known to express integrin α4β7; endogenous in cells; host or cells: RPMI-8866 (human B lymphoma cell line)
T2 sequence (P13612 34-1032): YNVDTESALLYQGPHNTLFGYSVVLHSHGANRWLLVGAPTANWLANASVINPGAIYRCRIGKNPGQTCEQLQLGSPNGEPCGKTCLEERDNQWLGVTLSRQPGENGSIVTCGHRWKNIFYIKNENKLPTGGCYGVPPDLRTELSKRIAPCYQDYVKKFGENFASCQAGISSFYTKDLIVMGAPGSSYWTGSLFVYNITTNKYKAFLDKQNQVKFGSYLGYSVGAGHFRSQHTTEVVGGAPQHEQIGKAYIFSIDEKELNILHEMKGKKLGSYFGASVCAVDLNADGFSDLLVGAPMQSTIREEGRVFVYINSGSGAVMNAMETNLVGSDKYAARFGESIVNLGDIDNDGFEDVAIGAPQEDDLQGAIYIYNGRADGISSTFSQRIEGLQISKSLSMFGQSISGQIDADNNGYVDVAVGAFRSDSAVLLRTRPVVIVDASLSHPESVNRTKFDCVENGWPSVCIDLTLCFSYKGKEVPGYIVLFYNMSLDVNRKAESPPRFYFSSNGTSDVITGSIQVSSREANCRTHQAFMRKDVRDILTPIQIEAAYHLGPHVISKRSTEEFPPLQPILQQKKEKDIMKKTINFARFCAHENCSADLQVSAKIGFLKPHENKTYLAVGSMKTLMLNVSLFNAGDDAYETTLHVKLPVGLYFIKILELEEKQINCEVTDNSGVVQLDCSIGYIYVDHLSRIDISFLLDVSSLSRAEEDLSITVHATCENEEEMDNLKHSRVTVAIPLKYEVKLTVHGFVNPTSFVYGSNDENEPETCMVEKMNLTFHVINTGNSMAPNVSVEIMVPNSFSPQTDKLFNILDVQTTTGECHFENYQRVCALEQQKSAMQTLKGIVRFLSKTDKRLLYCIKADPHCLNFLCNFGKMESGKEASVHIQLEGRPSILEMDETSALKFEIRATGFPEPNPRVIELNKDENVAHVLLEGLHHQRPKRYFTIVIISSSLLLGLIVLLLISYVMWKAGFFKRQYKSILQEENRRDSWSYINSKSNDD
T2 sequence (P26010 20-798): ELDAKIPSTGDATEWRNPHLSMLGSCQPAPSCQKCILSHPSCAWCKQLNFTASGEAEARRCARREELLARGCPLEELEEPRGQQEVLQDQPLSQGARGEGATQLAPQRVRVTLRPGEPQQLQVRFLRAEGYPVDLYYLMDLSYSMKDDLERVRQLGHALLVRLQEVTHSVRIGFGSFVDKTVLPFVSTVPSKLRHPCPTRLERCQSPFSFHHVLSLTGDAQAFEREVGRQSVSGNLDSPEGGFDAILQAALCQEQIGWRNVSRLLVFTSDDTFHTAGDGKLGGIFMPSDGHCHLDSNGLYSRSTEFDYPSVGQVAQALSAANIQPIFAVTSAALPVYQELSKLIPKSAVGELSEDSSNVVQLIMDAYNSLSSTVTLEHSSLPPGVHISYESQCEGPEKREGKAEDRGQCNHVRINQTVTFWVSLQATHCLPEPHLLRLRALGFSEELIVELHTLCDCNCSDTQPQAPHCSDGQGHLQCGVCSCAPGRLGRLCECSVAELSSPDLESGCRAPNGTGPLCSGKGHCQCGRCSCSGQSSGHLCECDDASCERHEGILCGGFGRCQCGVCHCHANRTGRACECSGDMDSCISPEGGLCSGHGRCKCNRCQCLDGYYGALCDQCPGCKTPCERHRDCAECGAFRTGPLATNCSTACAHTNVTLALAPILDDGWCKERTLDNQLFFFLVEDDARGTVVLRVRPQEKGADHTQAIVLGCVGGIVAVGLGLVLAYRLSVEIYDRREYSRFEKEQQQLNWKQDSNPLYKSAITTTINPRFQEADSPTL
Description: (Test Example) VCAM Antagonistic Activity (VCAM-1/α4β7 Binding Assay):
The capacity of a test substance antagonistic to the binding of lymphoma cell strain RPMI-8866 of human B cells, known to express integrin α4β7, to VCAM-1 was determined.
as §1
RPMI-8866 cells were incubated in Dulbecco modified Eagle medium containing 10 μg/ml of Calcein-AM (Wako Pure Chemical Industries, Ltd.) (SIGMA, hereinafter referred to as “DMEM”) at 37° C. for 30 minutes to label with fluorescence. The cells were again suspended in a binding buffer (20 mM HEPES, DMEM containing 0.1% BSA) containing 4 mM of MnCl2.
as §2, with “RPMI-8866” for “Jurkat”
as §3

SMILES: CCC(CC)(C(=O)NC(Cc1ccc(OCc2c(Cl)cccc2Cl)cc1)C(=O)O)C(=O)N1CCCC(CO)C1 (mixture of isomers) [Example 60]
IC50 [1]: 100 to 2000 nM
IC50 [2]: 100 to 2000 nM

SMILES: CN(C)C(=O)C(C)(C)C(=O)N[C@@H](Cc1ccc(OCc2c(Cl)cccc2Cl)cc1)C(=O)O [Example 2, N-[2-(dimethylaminocarbonyl)-2-methyl-propanoyl]-O-(2,6-dichlorobenzyl)-L-tyrosine]
IC50 [1]: 100 to 2000 nM
IC50 [2]: 20 to 100 nM

SMILES: CCC(CC)(C(=O)N[C@@H](Cc1ccc(OCc2c(Cl)cccc2Cl)cc1)C(=O)O)C(=O)N1CCC(O)CC1 [Example 49]
IC50 [1]: 100 to 2000 nM
IC50 [2]: 20 to 100 nM

SMILES: CCC(CC)(C(=O)N[C@@H](Cc1ccc(OCc2c(Cl)cccc2Cl)cc1)C(=O)O)C(=O)N1CC[C@H](NC(C)=O)C1 [Example 55]
IC50 [1]: 20 to 100 nM
IC50 [2]: < 20 nM

SMILES: CC(C)(C(=O)N[C@@H](Cc1ccc(OCc2c(Cl)cccc2Cl)cc1)C(=O)O)C(=O)N1CCCC1 [Example 33]
IC50 [1]: 100 to 2000 nM
IC50 [2]: 20 to 100 nM

SMILES: CCC(CC)(C(=O)Nc1ccc(O)cc1)C(=O)N[C@@H](Cc1ccc(OCc2c(Cl)cccc2Cl)cc1)C(=O)O [Example 5]
IC50 [1]: 100 to 2000 nM
IC50 [2]: 100 to 2000 nM

SMILES: CCC(CC)(C(=O)N[C@@H](Cc1ccc(OCc2c(Cl)cccc2Cl)cc1)C(=O)O)C(=O)N1CC(O)C(Cl)C1 (stereo partly drawn) [Example 82]
IC50 [1]: 20 to 100 nM
IC50 [2]: < 20 nM

SMILES: CCC(CC)(C(=O)N[C@@H](Cc1ccc(OCc2c(Cl)cccc2Cl)cc1)C(=O)O)C(=O)N1CCC1 [Example 78]
IC50 [1]: 100 to 2000 nM
IC50 [2]: < 20 nM

SMILES: CCC(CC)(C(=O)N[C@@H](Cc1ccc(OCc2c(Cl)cccc2Cl)cc1)C(=O)O)C(=O)N1CC[C@@H](NC)C1 [Example 64]
IC50 [1]: 100 to 2000 nM
IC50 [2]: 20 to 100 nM

SMILES: CCC(CC)(C(=O)N[C@@H](Cc1ccc(OCc2c(Cl)cccc2Cl)cc1)C(=O)O)C(=O)N1CC[C@H](N)C1 [Example 66]
IC50 [1]: 100 to 2000 nM
IC50 [2]: 20 to 100 nM

SMILES: CCC(CC)(C(=O)N[C@@H](Cc1ccc(OCc2c(Cl)cccc2Cl)cc1)C(=O)O)C(=O)N1CC[C@@H](N)C1 [Example 76]
IC50 [1]: 100 to 2000 nM
IC50 [2]: < 20 nM

SMILES: CN(C(=O)C1(C(=O)N[C@@H](Cc2ccc(OCc3c(Cl)cccc3Cl)cc2)C(=O)O)CC1)c1ccccc1 [Example 23]
IC50 [1]: 2000 to 10000 nM
IC50 [2]: 100 to 2000 nM

Next, values leading:

IC50 [1]: 20 to 100 nM
IC50 [2]: < 20 nM
SMILES: CCC(CC)(C(=O)N[C@@H](Cc1ccc(NC(=O)c2cc(Br)ccc2Cl)cc1)C(=O)O)C(=O)N1CCCC1 [Example 96]

IC50 [1]: 100 to 2000 nM
IC50 [2]: 20 to 100 nM
SMILES: CCC(CC)(C(=O)N[C@@H](Cc1ccc(-c2c(OC)cccc2OC)cc1)C(=O)O)C(=O)N(C)C [Example 104]

IC50 [1]: 20 to 100 nM
IC50 [2]: < 20 nM
SMILES: CCC(CC)(C(=O)N[C@@H](Cc1ccc(NC(=O)c2cc(Br)ccc2Br)cc1)C(=O)O)C(=O)N1CCCC1 [Example 98]

IC50 [1]: 100 to 2000 nM
IC50 [2]: 20 to 100 nM
SMILES: CCC(CC)(C(=O)N[C@@H](Cc1ccc(-n2c(=O)c3ccccc3n(Cc3ccc4ccccc4c3)c2=O)cc1)C(=O)O)C(=O)N1CCCC1 [Example 100]

IC50 [1]: 100 to 2000 nM
IC50 [2]: 20 to 100 nM
SMILES: CCC(CC)(C(=O)N[C@@H](Cc1ccc(-n2c(=O)c3ccccc3n(CC=Cc3ccccc3)c2=O)cc1)C(=O)O)C(=O)N1CCCC1 [Example 101]

IC50 [1]: 100 to 2000 nM
IC50 [2]: 100 to 2000 nM
SMILES: O=CN1CCN(C(=O)C2(C(=O)N[C@@H](Cc3ccc(OCc4c(Cl)cccc4Cl)cc3)C(=O)O)CCC2)CC1 [Example 463]

IC50 [1]: 100 to 2000 nM
IC50 [2]: 20 to 100 nM
SMILES: CCC(CC)(C(=O)N[C@@H](Cc1ccc(-n2c(=O)c3ccccc3n(CC(=O)OC)c2=O)cc1)C(=O)O)C(=O)N1CCCC1 [Example 103]

IC50 [1]: 100 to 2000 nM
IC50 [2]: < 20 nM
SMILES: CCC(CC)(C(=O)N[C@@H](Cc1ccc(OCc2c(Cl)cccc2Cl)cc1)C(=O)O)C(=O)N1CC[C@@H](F)C1 [Example 84]

IC50 [1]: 20 to 100 nM
IC50 [2]: < 20 nM
SMILES: CCC(CC)(C(=O)N[C@@H](Cc1ccc(NC(=O)c2nc(S(C)(=O)=O)ncc2Cl)cc1)C(=O)O)C(=O)N1CCCC1 [Example 479, N-[2-(pyrrolidine-1-ylcarbonyl)-2-ethyl-butanoyl)-4-({[5-chloro-2-(methylsulfonyl)pyrimidine-4-yl]carbonyl}-amino)-L-phenyl-alanine]
